Broadly, the EC50 is the concentration giving half of the maximal effect.

One experiment concerns the target T1, α4β1/VCAM-1 (Homo sapiens, UniProt P05556+P13612).
T1 construct: The Jurkat (VCAM-1 assays) and HSB (ICAM-1 assays) cell lines were obtained from American Type Culture Collection; endogenous in cells; host or cells: Jurkat (ATCC)
Briefly: Static cell adhesion assay, Jurkat cells on VCAM-1 (VLA-4 agonist activity). Type of experiment: cell-based. The conditions noted are these: for Group against VCAM: EC50 relative to THI0349 (average 11 uM) run on the same plate, Jurkat cells, 50% FBS; for EC50: assay conditions reported herein, in the presence of serum, read-out: EC50 against VCAM. How it is done:
(§1) For in vitro cell adhesion assays, compounds were dissolved in DMSO to make a series of stock solutions such that a 1:100 dilution in assay buffer would yield the desired final working concentrations in 1% DMSO (vehicle). Human VCAM-1 and ICAM-1 were purchased from R&D Systems (Minneapolis, MN). The Jurkat (VCAM-1 assays) and HSB (ICAM-1 assays) cell lines were obtained from American Type Culture Collection (Manassas, VA) and were maintained in recommended culture media.
(§2) Assays were performed as previously described in Vanderslice et al., (2010), Biochem Biophys Res Commun 400, 619-624; and Vanderslice et al., (2013) J Biol Chem 288, 19414-19428. VCAM-1 or ICAM-1 ligand in 50 μL of 50 mM Tris-HCl (pH 7.4), 150 mM NaCl, (TBS) was added to wells of a 96-well plate and allowed to coat overnight at 4° C. To maximize the window to evaluate agonist activity, a sub-optimal coating concentration of ligand was used, typically 0.5 and 5 μg/mL in 50 μL TBS for VCAM-1 and ICAM-1 respectively. This ligand concentration corresponded approximately to that which would yield <5% adhesion as determined by dose-response curves. Briefly, 2×10^6 cells were labeled for 30 minutes with calcein-AM (Molecular Probes), washed, resuspended in binding buffer, and added to triplicate wells of ligand-coated plates (2×10^5 cells/well) that had been blocked with 2% BSA. After a 30-minute incubation at 37° C., the plates were washed 3 times with binding buffer, the adherent cells were lysed, and fluorescence was measured on a Tecan Safire^2 plate reader. The binding buffer was PBS with 1 mM MgCl2, 50% FBS for α4β1/VCAM-1 assays and PBS with 2 mM MgCl2, 5 mM EGTA, 50% FBS for αLβ2/ICAM-1 assays. EC50 is defined as the concentration of compound required to achieve 50% of the maximal response.

A further experiment addresses T2, αLβ2/ICAM-1 (Homo sapiens, UniProt P05107+P20701).
T2 construct: The Jurkat (VCAM-1 assays) and HSB (ICAM-1 assays) cell lines were obtained from American Type Culture Collection; endogenous in cells; host or cells: HSB (ATCC)
Description: Static cell adhesion assay, HSB cells on ICAM-1 (LFA-1; LAD). The settings on record: RFU of compound / RFU of THI0349, both at the same concentration. Type of experiment: cell-based. Here is the method: as §1, §2
In relation to LAD (Leukocyte Adhesion Deficiency), LFA-1 ratios are determined by dividing the relative fluorescence units (RFU) of each compound at a concentration of 3 μM over that of the reference standard of THI0349, also at 3 μM, (RFU Compound/RFU of THI0349). Log Ps were calculated by either Chemdraw® version 12 (CambridgeSoft) or ACD/Chemsketch® (ACD/Labs).

Molecules are shown by their SMILES.

T2 sequence (P20701 26-1170): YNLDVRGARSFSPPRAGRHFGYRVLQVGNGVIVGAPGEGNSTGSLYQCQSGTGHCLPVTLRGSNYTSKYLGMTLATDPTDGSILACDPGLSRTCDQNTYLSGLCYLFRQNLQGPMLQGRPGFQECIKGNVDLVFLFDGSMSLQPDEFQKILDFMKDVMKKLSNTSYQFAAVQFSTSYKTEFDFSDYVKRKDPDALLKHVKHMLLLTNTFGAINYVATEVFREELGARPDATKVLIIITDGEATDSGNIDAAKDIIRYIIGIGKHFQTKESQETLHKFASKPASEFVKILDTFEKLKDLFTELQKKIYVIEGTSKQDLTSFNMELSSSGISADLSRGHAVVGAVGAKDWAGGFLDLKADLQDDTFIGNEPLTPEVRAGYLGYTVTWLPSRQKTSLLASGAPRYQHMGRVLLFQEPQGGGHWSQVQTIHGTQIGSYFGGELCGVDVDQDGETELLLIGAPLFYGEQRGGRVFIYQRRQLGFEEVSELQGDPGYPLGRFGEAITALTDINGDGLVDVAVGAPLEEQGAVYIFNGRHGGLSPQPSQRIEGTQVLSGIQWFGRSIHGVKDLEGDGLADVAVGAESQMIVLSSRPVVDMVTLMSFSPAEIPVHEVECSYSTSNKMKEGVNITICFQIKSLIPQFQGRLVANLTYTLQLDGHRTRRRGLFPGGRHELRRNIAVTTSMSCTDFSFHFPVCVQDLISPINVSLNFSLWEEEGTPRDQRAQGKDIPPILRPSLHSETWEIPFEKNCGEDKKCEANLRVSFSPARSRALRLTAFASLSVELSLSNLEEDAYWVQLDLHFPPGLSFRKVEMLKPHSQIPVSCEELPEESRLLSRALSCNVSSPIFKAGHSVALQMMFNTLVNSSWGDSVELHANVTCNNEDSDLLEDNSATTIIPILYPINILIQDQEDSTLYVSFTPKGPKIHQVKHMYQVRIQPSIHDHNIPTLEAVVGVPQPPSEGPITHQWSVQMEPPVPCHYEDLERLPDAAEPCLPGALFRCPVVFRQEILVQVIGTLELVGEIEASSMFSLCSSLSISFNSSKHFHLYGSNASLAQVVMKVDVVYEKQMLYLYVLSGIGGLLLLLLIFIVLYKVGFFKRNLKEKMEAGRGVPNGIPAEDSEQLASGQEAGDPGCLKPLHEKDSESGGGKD
T2 sequence (P05107 23-769): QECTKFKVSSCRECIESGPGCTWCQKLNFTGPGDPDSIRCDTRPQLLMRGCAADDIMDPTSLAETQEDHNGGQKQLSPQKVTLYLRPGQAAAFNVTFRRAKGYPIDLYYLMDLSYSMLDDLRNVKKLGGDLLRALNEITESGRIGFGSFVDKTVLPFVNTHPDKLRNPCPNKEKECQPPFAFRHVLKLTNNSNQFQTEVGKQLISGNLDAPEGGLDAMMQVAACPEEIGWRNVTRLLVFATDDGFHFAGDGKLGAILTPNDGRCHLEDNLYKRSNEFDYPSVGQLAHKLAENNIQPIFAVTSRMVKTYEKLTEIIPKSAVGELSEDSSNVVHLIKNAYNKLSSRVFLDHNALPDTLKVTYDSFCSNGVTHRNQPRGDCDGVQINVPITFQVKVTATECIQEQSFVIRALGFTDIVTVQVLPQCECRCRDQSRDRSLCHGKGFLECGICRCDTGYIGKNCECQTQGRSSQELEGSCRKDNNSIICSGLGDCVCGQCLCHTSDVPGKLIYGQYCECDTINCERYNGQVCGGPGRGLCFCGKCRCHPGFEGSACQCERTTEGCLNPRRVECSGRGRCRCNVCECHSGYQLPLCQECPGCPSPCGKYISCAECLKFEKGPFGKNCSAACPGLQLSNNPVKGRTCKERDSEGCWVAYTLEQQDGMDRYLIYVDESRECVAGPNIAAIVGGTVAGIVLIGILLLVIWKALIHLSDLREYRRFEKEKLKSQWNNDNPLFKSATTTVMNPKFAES
T1 sequence (P13612 34-1032): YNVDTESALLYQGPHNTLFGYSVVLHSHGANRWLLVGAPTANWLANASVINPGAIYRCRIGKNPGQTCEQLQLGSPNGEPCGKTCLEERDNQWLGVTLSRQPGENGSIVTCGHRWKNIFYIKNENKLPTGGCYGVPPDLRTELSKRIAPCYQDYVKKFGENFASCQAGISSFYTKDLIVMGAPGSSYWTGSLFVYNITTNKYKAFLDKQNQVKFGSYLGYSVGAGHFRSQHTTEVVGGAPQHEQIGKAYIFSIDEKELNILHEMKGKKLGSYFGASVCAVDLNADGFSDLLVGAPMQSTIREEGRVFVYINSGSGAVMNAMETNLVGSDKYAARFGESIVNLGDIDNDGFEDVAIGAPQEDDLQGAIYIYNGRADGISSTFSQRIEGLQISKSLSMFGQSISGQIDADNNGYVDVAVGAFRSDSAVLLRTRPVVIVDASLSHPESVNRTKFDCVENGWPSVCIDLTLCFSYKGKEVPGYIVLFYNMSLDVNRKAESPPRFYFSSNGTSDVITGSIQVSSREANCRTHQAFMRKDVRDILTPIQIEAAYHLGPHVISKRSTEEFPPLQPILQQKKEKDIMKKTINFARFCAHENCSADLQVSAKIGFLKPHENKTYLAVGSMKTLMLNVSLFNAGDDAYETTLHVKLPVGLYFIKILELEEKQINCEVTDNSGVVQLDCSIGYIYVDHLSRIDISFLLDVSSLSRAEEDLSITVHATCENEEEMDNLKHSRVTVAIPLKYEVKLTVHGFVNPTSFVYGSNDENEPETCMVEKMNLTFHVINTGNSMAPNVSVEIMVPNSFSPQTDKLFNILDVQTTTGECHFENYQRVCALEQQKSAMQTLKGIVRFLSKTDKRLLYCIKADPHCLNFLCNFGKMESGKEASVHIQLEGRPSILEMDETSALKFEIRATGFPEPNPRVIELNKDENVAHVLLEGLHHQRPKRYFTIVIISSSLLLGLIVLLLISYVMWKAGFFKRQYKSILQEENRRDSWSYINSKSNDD
T1 sequence (P05556 21-798): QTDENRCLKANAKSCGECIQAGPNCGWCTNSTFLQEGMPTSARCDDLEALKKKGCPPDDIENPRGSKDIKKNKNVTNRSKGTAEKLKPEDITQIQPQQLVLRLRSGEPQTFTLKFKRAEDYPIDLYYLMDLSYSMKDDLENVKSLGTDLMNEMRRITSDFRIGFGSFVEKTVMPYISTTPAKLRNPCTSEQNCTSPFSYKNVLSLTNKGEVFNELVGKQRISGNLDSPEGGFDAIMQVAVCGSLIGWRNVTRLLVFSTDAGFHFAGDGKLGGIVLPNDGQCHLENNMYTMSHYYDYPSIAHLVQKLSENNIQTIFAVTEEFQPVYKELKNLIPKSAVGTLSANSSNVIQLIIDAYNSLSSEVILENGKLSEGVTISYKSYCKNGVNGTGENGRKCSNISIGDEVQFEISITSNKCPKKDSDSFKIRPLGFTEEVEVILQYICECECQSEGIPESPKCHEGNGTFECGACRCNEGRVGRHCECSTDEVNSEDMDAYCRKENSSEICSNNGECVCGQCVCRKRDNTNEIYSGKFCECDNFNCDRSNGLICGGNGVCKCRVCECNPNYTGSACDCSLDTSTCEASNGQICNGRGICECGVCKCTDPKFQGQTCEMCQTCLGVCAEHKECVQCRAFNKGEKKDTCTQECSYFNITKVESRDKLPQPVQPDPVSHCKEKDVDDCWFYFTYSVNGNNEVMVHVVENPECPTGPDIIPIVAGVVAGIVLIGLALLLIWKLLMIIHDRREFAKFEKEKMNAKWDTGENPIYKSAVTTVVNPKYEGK

For the compound `COc1ccc(CCCNC(=O)c2cnc(N(Cc3cccc(OC)c3)Cc3cccc(OC)c3)o2)cc1` [Compound 22, 2-(bis(3-methoxybenzyl)amino)-N-(3-(4-methoxyphenyl)propyl)oxazole-5-carboxamide], the “Group against VCAM” value on α4β1/VCAM-1 is given as “I (Group I maintains at least the same potency or better up to more than twice that of the EC50 of THI0349 ran on the same plate)”. The “LAD Raw Fluorescence Units against LFA-1; Dose 3 µM; Ratio of raw counts Compound/THI0349” value at αLβ2/ICAM-1 turned out to be 0.69.
For `COc1cccc(CN(C)c2nc(C)cs2)c1` [Compound 100, N-(3-methoxybenzyl)-N,4-dimethylthiazol-2-amine], in that order: “III (Group III more than five times the EC50 of THI0349)” and 0.05.
For `COc1cccc(CN(Cc2cccc(OC)c2)c2nc(CN3CCOCC3)co2)c1` [Compound 81, N,N-bis(3-methoxybenzyl)-4-(morpholinomethyl)oxazol-2-amine], in that order: “II (Group II is more than twice that of THI0349 but less than five times THI0349's EC50)” and 0.36.
For `COC(=O)c1nc(N(Cc2cccc(OC)c2)Cc2cccc(OC)c2)sc1C` [Compound 101, methyl 2-(bis(3-methoxybenzyl)amino)-5-methylthiazole-4-carboxylate], in that order: “II (Group II is more than twice that of THI0349 but less than five times THI0349's EC50)” and 0.03.
Take `CCOC(=O)c1csc(N(Cc2cccc(OC)c2)Cc2ccc3[nH]ncc3c2)n1` [Compound 116, ethyl 2-(((1H-indazol-5-yl)methyl)(3-methoxybenzyl)amino)thiazole-4-carboxylate]: the “Group against VCAM” value at α4β1/VCAM-1 is given as “III (Group III more than five times the EC50 of THI0349)”. Further, the “LAD Raw Fluorescence Units against LFA-1; Dose 3 µM; Ratio of raw counts Compound/THI0349” value on αLβ2/ICAM-1 is reported as 0.09.
On to `COc1cccc(CN(Cc2cccc(OC)c2)c2nc(COCCOc3cccc(N(C)C)c3)cs2)c1` [Compound 48, 4-((2-(3-(dimethylamino)phenoxy)ethoxy)methyl)-N,N-bis(3-methoxybenzyl)thiazol-2-amine], for which the “Group against VCAM” value on α4β1/VCAM-1 is on record as “I (Group I maintains at least the same potency or better up to more than twice that of the EC50 of THI0349 ran on the same plate)”. Also, at αLβ2/ICAM-1, the “LAD Raw Fluorescence Units against LFA-1; Dose 3 µM; Ratio of raw counts Compound/THI0349” value was found to be 0.43.
For `COc1ccc(CN(Cc2ccc(OC)cc2)c2nc(COCCOCCO)cs2)cc1` [Compound 34, 2-(2-((2-(bis(4-methoxybenzyl)amino)thiazol-4-yl)methoxy)ethoxy)ethanol], the “Group against VCAM” value on α4β1/VCAM-1 is reported as “III (Group III more than five times the EC50 of THI0349)”. Moreover, on αLβ2/ICAM-1, the “LAD Raw Fluorescence Units against LFA-1; Dose 3 µM; Ratio of raw counts Compound/THI0349” value is 0.34.
For the compound `COc1ccc(CCc2csc(N(Cc3cccc(OC)c3)Cc3cccc(OC)c3)n2)cc1` [Compound 71, N,N-bis(3-methoxybenzyl)-4-(4-methoxyphenethyl)thiazol-2-amine], the “Group against VCAM” value at α4β1/VCAM-1 is given as “III (Group III more than five times the EC50 of THI0349)”. For the same compound, on αLβ2/ICAM-1, the “LAD Raw Fluorescence Units against LFA-1; Dose 3 µM; Ratio of raw counts Compound/THI0349” value was determined as 0.1.
With `COc1cccc(CN(Cc2cccc(OC)c2)c2nc(COC3CCOCC3)cs2)c1` [Compound 122, N,N-bis(3-methoxybenzyl)-4-((tetrahydro-2H-pyran-4-yloxy)methyl)thiazol-2-amine], the “Group against VCAM” value on α4β1/VCAM-1 is “II (Group II is more than twice that of THI0349 but less than five times THI0349's EC50)”.
With `COc1cccc(CN(Cc2cccc(OC)c2)c2nc(COCCN3CCc4ccccc43)cs2)c1` [Compound 88, 4-((2-(indolin-1-yl)ethoxy)methyl)-N,N-bis(3-methoxybenzyl)thiazol-2-amine], at α4β1/VCAM-1, the “Group against VCAM” value was “II (Group II is more than twice that of THI0349 but less than five times THI0349's EC50)”. The “LAD Raw Fluorescence Units against LFA-1; Dose 3 µM; Ratio of raw counts Compound/THI0349” value at αLβ2/ICAM-1 is 0.18.
For `COc1cccc(CNC(=O)c2coc(N(Cc3cccc(OC)c3)Cc3cccc(OC)c3)n2)c1` [Compound 18, 2-(bis(3-methoxybenzyl)amino)-N-(3-methoxybenzyl)oxazole-4-carboxamide], in that order: “II (Group II is more than twice that of THI0349 but less than five times THI0349's EC50)” and 0.17.
On to `COc1ccc(CCNC(=O)c2csc(N(Cc3cccc(OC)c3)Cc3cccc(OC)c3)n2)cc1` [Compound 21, 2-(bis(3-methoxybenzyl)amino)-N-(4-methoxyphenethyl)thiazole-4-carboxamide], for which the “Group against VCAM” value on α4β1/VCAM-1 was “I (Group I maintains at least the same potency or better up to more than twice that of the EC50 of THI0349 ran on the same plate)”.
As to `COc1cccc(CN(Cc2cccc(OC)c2)c2nc(CNC3CCOCC3)cs2)c1` [Compound 128, N,N-bis(3-methoxybenzyl)-4-((tetrahydro-2H-pyran-4-ylamino)methyl)thiazol-2-amine], the “Group against VCAM” value on α4β1/VCAM-1 is listed as “I (Group I maintains at least the same potency or better up to more than twice that of the EC50 of THI0349 ran on the same plate)”.
As to `COc1cccc(CN(Cc2cccc(OC)c2)c2nc(CNC3CCN(C)CC3)cs2)c1` [Compound 126, N,N-bis(3-methoxybenzyl)-4-((1-methylpiperidin-4-ylamino)methyl)thiazol-2-amine], on α4β1/VCAM-1, the “Group against VCAM” value is reported as “III (Group III more than five times the EC50 of THI0349)”.
Same read-out and setting: with `COc1cccc(CN(Cc2cccc(OC)c2)c2nc(CN(C)C3CCOCC3)cs2)c1` [Compound 125, N,N-bis(3-methoxybenzyl)-4-((methyl(tetrahydro-2H-pyran-4-yl)amino)methyl)thiazol-2-amine] the entry was “II (Group II is more than twice that of THI0349 but less than five times THI0349's EC50)”.
As to `COc1cccc(CN(Cc2cccc(OC)c2)c2nc(COCC3COC3)cs2)c1` [Compound 129, N,N-bis(3-methoxybenzyl)-4-((oxetan-3-ylmethoxy)methyl)thiazol-2-amine], the “Group against VCAM” value at α4β1/VCAM-1 was “II (Group II is more than twice that of THI0349 but less than five times THI0349's EC50)”.
The same measure, in the same setting: for `CCOC(=O)c1csc(N(Cc2cccc(OC)c2)Cc2ccc3nc[nH]c3c2)n1` [Compound 120, ethyl 2-(((1H-benzo[d]imidazol-6-yl)methyl)(3-methoxybenzyl)amino)thiazole-4-carboxylate] the value was “III (Group III more than five times the EC50 of THI0349)”; for `COc1cccc(CN(Cc2cccc(OC)c2)c2nc(CNCC3CCN(C)CC3)cs2)c1` [Compound 130, N,N-bis(3-methoxybenzyl)-4-(((1-methylpiperidin-4-yl)methylamino)methyl)thiazol-2-amine], “III (Group III more than five times the EC50 of THI0349)”; for `COc1cccc(CN(Cc2cccc(OC)c2)c2nc(COC3COC3)cs2)c1` [Compound 123, N,N-bis(3-methoxybenzyl)-4-((oxetan-3-yloxy)methyl)thiazol-2-amine], “II (Group II is more than twice that of THI0349 but less than five times THI0349's EC50)”.
The same measure, in the same setting: with `COc1cccc(CN(Cc2cccc(OC)c2)c2nc(COCC3CCOCC3)cs2)c1` [Compound 124, N,N-bis(3-methoxybenzyl)-4-(((tetrahydro-2H-pyran-4-yl)methoxy)methyl)thiazol-2-amine] the entry was “II (Group II is more than twice that of THI0349 but less than five times THI0349's EC50)”.
As for `CCCC[C@@H](COC(=O)N(Cc1cccs1)Cc1cccs1)NC(=O)N[C@@H](CC(=O)OC)c1ccc2c(c1)OCO2` [THI0019, reference compound], the EC50 on α4β1/VCAM-1 amounted to 33 µM.
As for `COc1cccc(CN(Cc2cccc(OC)c2)c2nc(COCCOC3CCOCC3)cs2)c1` [Compound 131, N,N-bis(3-methoxybenzyl)-4-((2-(tetrahydro-2H-pyran-4-yloxy)ethoxy)methyl)thiazol-2-amine], the “Group against VCAM” value on α4β1/VCAM-1 is recorded as “I (Group I maintains at least the same potency or better up to more than twice that of the EC50 of THI0349 ran on the same plate)”.
In the case of `O=C(OCCOCCOCCOC(=O)N(Cc1cccs1)Cc1cccs1)N(Cc1cccs1)Cc1cccs1` [THI0349, reference compound], at α4β1/VCAM-1, the EC50 was determined as 11 µM.
